# Test results reported in patent US6322962A, “Sterol-regulated Site-1 protease and assays of modulators thereof” (Board of Regents, The University of Texas System, priority 1999, dated 2001).
# Square brackets hold non-standard residues; d marks the D form. Peptide text beside a SMILES is read from it. * marks the point of attachment. Sta = CC(C)C[C@H](N)[C@@H](O)CC(=O)O; AMC = Cc1cc(=O)oc2cc(N*)ccc12; Isovaleryl = CC(C)CC(=O)*; Nle = CCCC[C@H](N)C(=O)O; Boc = CC(C)(C)OC(=O)*
# Key:
# purified S1P(983)-C [1] = molecular target: T1, purified S1P(983)-C (Cricetulus griseus, UniProt Q9Z2A8, T875N); assay: Fluorogenic peptide assay for S1P activity (cleavage of MCA-conjugated peptides); type: biochemical, hamster; details: for Relative Activity: 100 μM peptide-MCA, 3 μg S1P(983)-C, 37° C., 5 h, Ac-VFRSLK-MCA set at 1.0; for cleavage of the peptide: result in words
# T1 construct: Truncated S1P (amino acids 1-983); GGR linker (NotI site); made in house; host or cells: SRD-12B cells (mutant CHO cells lacking S1P) stably transfected with pCMV-S1P(983)-Myc-His (TR-3117, 'S1P(983) cells'); secreted into the medium and purified on Ni-NTA
# T1 sequence (Q9Z2A8 187-983 T875N): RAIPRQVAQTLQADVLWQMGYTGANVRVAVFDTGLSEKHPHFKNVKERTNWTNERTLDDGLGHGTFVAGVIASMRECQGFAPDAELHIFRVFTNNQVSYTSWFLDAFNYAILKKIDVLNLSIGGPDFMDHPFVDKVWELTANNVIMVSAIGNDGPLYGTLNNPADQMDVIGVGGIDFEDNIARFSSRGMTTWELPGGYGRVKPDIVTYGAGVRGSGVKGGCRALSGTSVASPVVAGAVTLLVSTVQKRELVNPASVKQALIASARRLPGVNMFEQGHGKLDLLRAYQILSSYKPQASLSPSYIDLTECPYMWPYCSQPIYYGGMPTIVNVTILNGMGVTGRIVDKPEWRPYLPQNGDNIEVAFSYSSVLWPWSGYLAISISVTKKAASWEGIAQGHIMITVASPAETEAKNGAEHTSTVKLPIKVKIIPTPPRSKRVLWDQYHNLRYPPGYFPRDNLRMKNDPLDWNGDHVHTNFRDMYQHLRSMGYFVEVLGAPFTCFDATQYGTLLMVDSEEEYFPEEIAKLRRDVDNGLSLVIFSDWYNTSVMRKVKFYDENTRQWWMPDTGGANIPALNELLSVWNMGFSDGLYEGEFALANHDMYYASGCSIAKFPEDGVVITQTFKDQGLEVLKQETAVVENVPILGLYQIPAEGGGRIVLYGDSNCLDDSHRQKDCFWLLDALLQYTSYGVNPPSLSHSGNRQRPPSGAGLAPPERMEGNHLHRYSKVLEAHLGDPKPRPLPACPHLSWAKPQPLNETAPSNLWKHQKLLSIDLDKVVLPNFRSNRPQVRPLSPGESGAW
# Method: (§1) Fluorogenic Peptide Assay for S1P Activity
# S1P activity was measured fluorometrically with MCA-conjugated peptidyl substrates. Each reaction was carried out in 0.2 ml of assay buffer (25 mM Tris, 25 mM Mes, 25 mM acetic acid, and 1 mM CaCl2 adjusted to pH 8.0 with concentrated NaOH). Reactions contained MCA-peptide (final concentration 100 μM, added in 2 μl DMSO) and […] of purified S1P(983)-C. After incubation for 0.5-5 h at 37° C., each reaction was terminated by addition of 1 ml of ice-cold 5 mM sodium EDTA. The liberated 7-amino-4-methyl-coumarin (AMC) was measured with a Perkin-ElmerLS-30 luminescence spectrometer (360 nm excitation, 460 nm emission). A standard curve of fluorescence intensity was generated with different concentrations of AMC (Promega).
# Similar substrates have been used to assay furin, prohormone convertases, and other subtilisin-related enzymes (Nakayama, 1997). […] The sequence of this peptide corresponds to the sequence at Site-B of S1P, which is known to be cleaved by S1P in an autocatalytic reaction. Fluorescence rose linearly with time for 5 h. […] This differs from the observations with furin and the prohormone convertases, whose pH optima are generally in the range of 6-7 (Nakayama, 1997).
# The indicated fluorogenic peptide-MCA (100 μM) was incubated with 3 μg of purified S1P(983)-C at 37° C. for 5 h. The S1P activity of Ac-VFRSLK-MCA (SEQ ID NO:13, 930 pmol per min/mg protein) was set at 1.0, and the activity of the other substrates was expressed relative to this value. Each value represents the average of duplicate incubations, which varied from each other by <10%.
# purified S1P(983)-C [2] = molecular target: T1, purified S1P(983)-C; assay: Effect of protease inhibitors on S1P(983)-C mediated cleavage of Ac-VFRSLK-MCA; type: biochemical, hamster; details: for inhibition of S1P(983)-C: result in words
# Method: as §1
# S1P activity was measured fluorometrically with MCA-conjugated peptidyl substrates. […] After incubation for 0.5-5 h at 37° C., each reaction was terminated by addition of 1 ml of ice-cold 5 mM sodium EDTA. The liberated 7-amino-4-methyl-coumarin (AMC) was measured with a Perkin-ElmerLS-30 luminescence spectrometer (360 nm excitation, 460 nm emission). A standard curve of fluorescence intensity was generated with different concentrations of AMC (Promega).
# [3] = 1 mM, 100 μM Ac-VFRSLK-MCA, 37° C., 5 h
# [4] = 3 mM, 100 μM Ac-VFRSLK-MCA, 37° C., 5 h
# [5] = 10 mM, 100 μM Ac-VFRSLK-MCA, 37° C., 5 h
# [6] = 0.0003 mM, 100 μM Ac-VFRSLK-MCA, 37° C., 5 h
compound,measurement,setting,value
"CC(=O)N[C@H](C(=O)N[C@@H](Cc1ccccc1)C(=O)N[C@@H](C)C(=O)N[C@@H](CO)C(=O)N[C@@H](CC(C)C)C(=O)N[C@@H](CCCCN)C(=O)Nc1ccc2c(C)cc(=O)oc2c1)C(C)C [Ac-VFASLK-MCA, Ac-Val-Phe-Ala-Ser-Leu-Lys-MCA] (Ac-VFASLK-{AMC})",Relative Activity,purified S1P(983)-C [1],< 0.1
same,cleavage of the peptide,purified S1P(983)-C [1],no detectable cleavage
NCCc1ccc(S(=O)(=O)F)cc1 [Pefabloc ®],AMC Liberated,purified S1P(983)-C [2]; [3],731 pmol/tube
same,"AMC Liberated, % control",purified S1P(983)-C [2]; [3],87 % control
same,AMC Liberated,purified S1P(983)-C [2]; [4],366 pmol/tube
same,"AMC Liberated, % control",purified S1P(983)-C [2]; [4],44 % control
same,AMC Liberated,purified S1P(983)-C [2]; [5],60 pmol/tube
same,"AMC Liberated, % control",purified S1P(983)-C [2]; [5],7 % control
same,inhibition of S1P(983)-C,purified S1P(983)-C [2],inhibited by high concentrations
"Cc1cc(=O)oc2cc(NC(=O)[C@H](CCCNC(=N)N)NC(=O)[C@H](CCCNC(=N)N)NC(=O)[C@@H](NC(=O)[C@H](CCCNC(=N)N)NC(=O)OC(C)(C)C)C(C)C)ccc12 [Boc-RVRR-MCA, Boc-Arg-Val-Arg-Arg-MCA] (Boc-RVRR-{AMC})",Relative Activity,purified S1P(983)-C [1],< 0.1
same,cleavage of the peptide,purified S1P(983)-C [1],did not cleave
same,cleavage of the peptide,purified S1P(983)-C [1]; listed as RVRR-MCA,does not cleave
"O=S(=O)(F)Cc1ccccc1 [PMSF, phenylmethylsulfonyl fluoride]",AMC Liberated,purified S1P(983)-C [2]; [3],853 pmol/tube
same,"AMC Liberated, % control",purified S1P(983)-C [2]; [3],102 % control
same,AMC Liberated,purified S1P(983)-C [2]; [5],690 pmol/tube
same,"AMC Liberated, % control",purified S1P(983)-C [2]; [5],82 % control
same,inhibition of S1P(983)-C,purified S1P(983)-C [2],resisted
CC(C)CC(=O)N[C@H](C(=O)N[C@H](C(=O)N[C@@H](CC(C)C)[C@@H](O)CC(=O)N[C@@H](C)C(=O)N[C@@H](CC(C)C)[C@@H](O)CC(=O)O)C(C)C)C(C)C [Pepstatin] (Isovaleryl-VV[Sta]A[Sta]-OH),AMC Liberated,"purified S1P(983)-C [2]; 0.01 mM, 100 μM Ac-VFRSLK-MCA, 37° C., 5 h",798 pmol/tube
same,remaining activity at 10 µM,"purified S1P(983)-C [2]; pH 8, 0.01 mM, 100 μM Ac-VFRSLK-MCA, 37° C., 5 h, read-out: AMC Liberated, % control",95%
same,inhibition of S1P(983)-C,purified S1P(983)-C [2],resistant
"CCCC[C@@H](C=O)NC(=O)[C@H](CC(C)C)NC(=O)[C@H](CC(C)C)NC(C)=O [ALLN, N-acetyl-leucinal-leucinal-norleucinal] (Ac-Leu-Leu-[Nle]-aldehyde)",AMC Liberated,"purified S1P(983)-C [2]; 0.1 mM, 100 μM Ac-VFRSLK-MCA, 37° C., 5 h",811 pmol/tube
same,remaining activity at 100 µM,"purified S1P(983)-C [2]; pH 8, 0.1 mM, 100 μM Ac-VFRSLK-MCA, 37° C., 5 h, read-out: AMC Liberated, % control",97%
same,inhibition of S1P(983)-C,purified S1P(983)-C [2],resistant
Aprotinin,AMC Liberated,purified S1P(983)-C [2]; [6],745 pmol/tube
same,"AMC Liberated, % control",purified S1P(983)-C [2]; [6],89 % control
same,inhibition of S1P(983)-C,purified S1P(983)-C [2],resistant
"c1cnc2c(c1)ccc1cccnc12 [1,10-Phenanthroline, 1,10-phenanthroline]",AMC Liberated,purified S1P(983)-C [2]; [4],361 pmol/tube
same,AMC Liberated,purified S1P(983)-C [2]; [5],253 pmol/tube
same,remaining activity at 3000 µM,"purified S1P(983)-C [2]; pH 8, 3 mM, 100 μM Ac-VFRSLK-MCA, 37° C., 5 h, read-out: AMC Liberated, % control",43%
same,remaining activity at 10000 µM,"purified S1P(983)-C [2]; pH 8, 10 mM, 100 μM Ac-VFRSLK-MCA, 37° C., 5 h, read-out: AMC Liberated, % control",30%
same,inhibition of S1P(983)-C,purified S1P(983)-C [2],partially inhibited
